One assay has as its target hKIF18A (1-374) (Homo sapiens (Human), UniProt Q8NI77). Description: Inhibition of KIF18A microtubule-dependent ATPase activity (ADP-Glo). The conditions noted are these: 4 nM hKIF18A (1-374). The class given is biochemical. The gist of the method: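 Reaction was started with pre-formed microtubules and ATP (0.2 mg/mL and 2.0 mM in the added mix) and run 60 min at 28 °C. ADP was read by ADP-Glo luminescence, and IC50 came from a four-parameter fit of % inhibition.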

The target in assay [1] is KIF18a-microtubule complex (Homo sapiens (Human), UniProt Q8NI77). The assay is described as follows: Binding kinetics to KIF18a-microtubule complex (global progress curve analysis). On the procedure:
Compound binding kinetics parameters (kon and koff) were determined by the method of global progress curve analysis (GPCA). […] ADP product levels were determined by the Promega® ADP-Glo assay.

The next assay relates to HCC15 cells. Description: Cell viability of KIF18a-sensitive cell lines, HCC15 (Cell Titre-Glo, 7 days). The conditions noted are these: 168 h; HCC15, 7 days; read-out: HCC15 IC50. It counts as cell-based.
In the next assay the test system is JIMT-1 cells. Description: Cell viability of KIF18a-sensitive cell lines, JIMT-1 (Cell Titre-Glo, 7 days). It counts as cell-based. The conditions noted are these: Homo sapiens, 168 h; JIMT-1, 7 days; read-out: JIMT-1 IC50.
For a further assay, the system named is NIH:OVCAR-3 cells. The assay is described as follows: Cell viability of KIF18a-sensitive cell lines, NIH:OVCAR-3 (Cell Titre-Glo, 7 days). The class given is cell-based. The conditions noted are these: Homo sapiens, OVCAR-3, 168 h; NIH:OVCAR3, 7 days; read-out: NIH:OVCAR3 IC50.
The test system of a further assay is OVCAR-3 tumor cells. The assay is described as follows: In vivo activity, OVCAR-3 xenograft tumor growth inhibition. The conditions noted are these: OVCAR3 model, Balb/C nude mice, FIG. 1. On the procedure:
(§1) OVCAR-3 (ATCC) tumor cells were maintained in vitro in RPMI-1640 medium supplemented with 20% fetal bovine serum, 0.01 mg/mL bovine insulin and 1% Anti-Anti at 37° C. in an atmosphere of 5%/CO2 in air. HCC15 (DSMZ) tumor cells were maintained in vitro in RPMI 1640 medium supplemented with 10% fetal bovine serum and 1% Anti-Anti at 37° C. in an atmosphere of 5% CO2 in air.
(§2) The tumor cells were sub-cultured twice weekly. The cells growing in an exponential growth phase were harvested and counted for tumor inoculation.
(§3) Tumor cells (10×106) in 0.2 mL of PBS mixed with Matrigel (50:50) were inoculated subcutaneously on the right flank of each mouse. When the average tumor volume reached 110-175 mm^3, animals were randomized into groups of 10 and treatment started. OVCAR-3 cells were implanted in Balb/C nude mice, and HCC15 cell were implanted in SCID Beige mice.
(§4) Compounds were dosed once or twice a day (12 h) orally. Tumor Growth Inhibition (TGI) was calculated using the formula: TGI (%)=[1−(TN−T0)/(VN−V0)]×100; TN is the average tumor volume of a treatment group at the indicated timepoint, T0 is the average tumor volume of the treatment group on treatment day 0, VN is the average tumor volume of the vehicle control group at the indicated timepoint, and V0 is the average tumor volume of the vehicle group on treatment day 0. P value was calculated based on tumor size by One-Way ANOVA with GraphPad Prism 9.4.0 compared with the vehicle group, respectively. **** indicates p<0.0001.
(§5) The tumor volume of vehicle- and compound-treated mice as a function of time after start of treatment and the results of treatments with selected compounds on SCID Beige mice or nude mice implanted with HCC15 or OVCAR-3 are shown in FIGS. 1 and 2. The TGI calculated for treatments with selected compounds are shown in Table 11.

Another assay concerns HCC15 tumor cells. Description: In vivo activity, HCC15 xenograft tumor growth inhibition. To be noted: HCC15 model, SCID Beige mice, FIG. 2. How it is done:
as §1, §2, §3, §4, §5

Chain of KIF18a-microtubule complex (Q8NI77 1-374, one chain of several): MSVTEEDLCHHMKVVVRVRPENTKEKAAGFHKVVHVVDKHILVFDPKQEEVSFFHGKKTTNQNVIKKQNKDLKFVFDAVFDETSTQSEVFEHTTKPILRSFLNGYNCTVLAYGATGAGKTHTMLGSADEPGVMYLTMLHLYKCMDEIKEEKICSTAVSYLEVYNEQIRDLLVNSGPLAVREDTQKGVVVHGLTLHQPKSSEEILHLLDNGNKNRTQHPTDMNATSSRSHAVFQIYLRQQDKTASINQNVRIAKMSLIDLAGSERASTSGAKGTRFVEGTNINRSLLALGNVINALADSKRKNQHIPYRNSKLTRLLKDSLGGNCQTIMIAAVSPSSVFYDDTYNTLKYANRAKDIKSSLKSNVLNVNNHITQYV
Chain of hKIF18A (1-374) (Q8NI77 1-374): as the sequence (Q8NI77 1-374, one chain of several) above

For `Cc1cc(-c2cn(-c3ccc(NS(=O)(=O)CCO)cc3N3CCC4(CC3)CC4)nn2)nc(N2CCC(F)(F)CC2)n1` [Compound 47, N-(4-(4-(2-(4,4-difluoropiperidin-1-yl)-6-methylpyrimidin-4-yl)-1H-1,2,3-triazol-1-yl)-3-(6-azaspiro[2.5]octan-6-yl)phenyl)-2-hydroxyethane-1-sulfonamide], the IC50 (usually the concentration needed to halve the response being measured) against hKIF18A (1-374) came out at 0.019 µM; in the assay with HCC15 cells, 0.0092 µM; in the assay with JIMT-1 cells it was 0.016 µM; in the assay with NIH:OVCAR-3 cells, 0.013 µM. In assay [1] (KIF18A 0.25 nM, up to 24 hr), the “kon (on-rate from binding kinetics assay)” value was 14400 M⁻¹ s⁻¹. Further, the koff (in general, the rate constant with which the complex falls apart) in assay [1] (KIF18A 0.25 nM, up to 24 hr, read-out: koff (off-rate from binding kinetics assay) (converted)) was 2.78e-06 s⁻¹. Besides, the Ki in assay [1] (koff/kon, read-out: KI (determined from binding kinetic assay koff/kon)) worked out at 0.0002 µM. In assay [1] (ln(2)/koff), the “disc. t1/2 (dissociation half-life ln(2)/koff)” value was determined as 68 h. In addition, the TGI is 44 ± 11% in the assay with OVCAR-3 tumor cells (3 mg/kg QD PO); 119 ± 1% with OVCAR-3 tumor cells (10 mg/kg QD PO); 120 ± 1% with OVCAR-3 tumor cells (30 mg/kg QD PO); 64 ± 7% in the assay with HCC15 tumor cells (3 mg/kg QD PO); 83 ± 4% with HCC15 tumor cells (10 mg/kg QD PO); 87 ± 4% in the assay with HCC15 tumor cells (30 mg/kg QD PO).

(Values after patent US20230382889A1 (Volastra Therapeutics, Inc., priority 2022, published 2023).)
